From patent US7223759B2, “Antibacterial 3,5-diaminopiperidine-substituted aromatic and heteroaromatic compounds” (Anadys Pharmaceuticals, Inc., priority 2003, dated 2007)
Read-outs that look alike come from different tables or passages of the source.

Tested on: Escherichia coli (ATCC25922) or Staphylococcus aureus (ATCC25923)
Assay: Antibacterial MIC, microdilution method in Mueller-Hinton medium
Format: cell-based
Settings: for MIC: Escherichia coli, 18 h, read-out: Potency (MIC)
In short: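 Two-fold serial dilutions from 64 to 0.5 μg/ml, in duplicate, by broth microdilution in Mueller-Hinton medium (NCCLS M7-A5). MIC taken as the lowest concentration preventing visible growth after 18 h at 35° C.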

[1] = MIC in E. coli or S. aureus, two-fold serial dilutions 64 to 0.5 μg/ml in duplicate, 18 hours of incubation at 35° C.

| Molecule | MIC [µg/mL] | further results |
| --- | --- | --- |
| N[C@@H]1C[C@H](N)CN(c2nc(Nc3ccc(C(=O)CC(=O)Nc4ccccc4F)cc3)nc(N3C[C@H](N)C[C@H](N)C3)n2)C1 [N-{4-[2-(2-fluoro-phenylcarbamoyl)-acetyl]-phenyl}-4,6-Bis-((3R,5S)-3,5-diamino-piperidin-1-yl)-[1,3,5]triazine-2-amine] | < 64 |  |
| N[C@@H]1C[C@H](N)CN(c2nc(Nc3ccc(NC(=O)c4ccc(O)cc4O)c(O)c3)nc(N3C[C@H](N)C[C@H](N)C3)n2)C1 [N-[4-(2,4-dihydroxy-benzoylamino)-3-hydroxy-phenyl]-4,6-Bis-((3R,5S)-3,5-diamino-piperidin-1-yl)-[1,3,5]triazine-2-amine] | < 16 |  |
| N[C@@H]1C[C@H](N)CN(c2nc(Nc3ccc(C(=O)CC(=O)Nc4ccc(F)c(Cl)c4)cc3)nc(N3C[C@H](N)C[C@H](N)C3)n2)C1 [N-{4-[2-(3-chloro-4-fluoro-phenylcarbamoyl)-acetyl]-phenyl}-4,6-Bis-((3R,5S)-3,5-diamino-piperidin-1-yl)-[1,3,5]triazine-2-amine] | < 16 |  |
| CCn1c2ccccc2c2cc(Nc3nc(N4C[C@H](N)C[C@H](N)C4)nc(N4C[C@H](N)C[C@H](N)C4)n3)ccc21 [N-(9-ethyl-9H-carbazol-3-yl)-4,6-Bis-((3R,5S)-3,5-diamino-piperidin-1-yl)-[1,3,5]triazine-2-amine] | < 64 |  |
| N[C@@H]1C[C@H](N)CN(c2nc(NCc3ccc(Cl)cc3Cl)nc(N3C[C@H](N)C[C@H](N)C3)n2)C1 [N-(2,4-dichloro-benzyl)-4,6-Bis-((3R,5S)-3,5-diamino-piperidin-1-yl)-[1,3,5]triazin-2-amine] | > 64 |  |
| carboxylic acid {4-[4-((2S,4S)-4-amino-2-hydroxymethyl-pyrrolidin-1-yl)-6-((3R,5S)-3,5-diamino-piperidin-1-yl)-[1,3,5]triazine-2-ylamino]-phenyl}-amide |  | Potency (MIC) [1]: ++ (++ means MIC<16 μg/ml in E. coli or S. aureus) |
| COc1cc(NC(=O)CC(=O)c2ccc(Nc3nc(N4C[C@H](N)C[C@H](N)C4)nc(N4C[C@H](N)C[C@H](N)C4)n3)cc2)cc(OC)c1OC [N-{4-[2-(3,4,5-trimethoxy-phenylcarbamoyl)-acetyl]-phenyl}-4,6-Bis-((3R,5S)-3,5-diamino-piperidin-1-yl)-[1,3,5]triazine-2-amine] |  | MIC [1]: > 64 µg/mL |
| Cc1cccc(NC(=O)c2ccc(Nc3nc(N4CCCCC4)nc(N4CCCCC4)n3)cc2O)n1.Cl [N-[3-hydroxy-4-(6-methyl-pyridin-2-ylcarbamoyl)-phenyl]-4,6-Bis-((3R,5S)-3,5-diamino-piperidin-1-yl)-[1,3,5]triaazine-2-amine] |  | MIC [1]: < 64 µg/mL |
| Cc1cccc(C(=O)Nc2cccc(Nc3nc(N4C[C@H](N)C[C@H](N)C4)nc(N4C[C@H](N)C[C@H](N)C4)n3)c2)c1O [N-[3-(2-hydroxy-3-methyl-benzoylamino)-phenyl]-4,6-Bis-((3R,5S)-3,5-diamino-piperidin-1-yl)-[1,3,5]triazine-2-amine] | < 16 |  |
| C[C@H](Nc1nc(N2C[C@H](N)C[C@H](N)C2)nc(N2C[C@H](N)C[C@H](N)C2)n1)c1cccc2ccccc12 [N-((S)-1-naphthalen-1-yl-ethyl)-4,6-Bis-((3R,5S)-3,5-diamino-piperidin-1-yl)-[1,3,5]triazine-2-amine] | > 64 |  |
| CC(=O)c1ccc(Nc2nc(N3C[C@H](N)C[C@H](N)C3)nc(N3C[C@@H](N)C[C@@H](O)C3)n2)cc1 [1-{4-[4-((3S,5R)-3-Amino-5-hydroxy-piperidin-1-yl)-6-((3R,5S)-3,5-diamino-piperidin-1-yl)-[1,3,5]triazin-2-ylamino]-phenyl}-ethanone] |  | MIC [1]: > 64 µg/mL |
| N[C@@H]1C[C@H](N)CN(c2nc(Nc3ccc(NC(=O)c4cc(OC(F)(F)F)ccc4O)c(O)c3)nc(N3C[C@H](N)C[C@H](N)C3)n2)C1 [N-[3-hydroxy-4-(2-hydroxy-5-trifluoromethoxy-benzoylamino)-phenyl]-4,6-Bis-((3R,5S)-3,5-diamino-piperidin-1-yl)-[1,3,5]triazine-2-amine] | < 16 |  |
